Here are results for 5 compounds from article PMC4750397 (Clinical lung cancer, 2015).

Marks after values point to notes of the source that are not given here.

In general, Tmax refers to the time from dosing to the highest level.

The nature of data set [1]: Plasma pharmacokinetics of regorafenib, M-2 and M-5. It is filed as in vivo, human. The note with it: for tmax,md: median (range printed in cell); for tmax,md / AUC(0–24)md Ratio (90% CI) / Cmax,md Ratio (90% CI): n = 6; for AUC(0–24)md Ratio (90% CI) / Cmax,md Ratio (90% CI): Ratio = C2D1:C1D21; for coefficient of variation (CV) in AUC and Cmax: high variability, Table 3A; for Tmax: human, plasma, oral.

For data set [2], the system named is patients with advanced nsNSCLCs. The note with it: single agent, ref [7], cited from earlier work.
In the next data set the test system is human xenograft models. The note with it: greater potency than sorafenib; ref [4], [22]; cited from earlier work.
A further data set has as its system patients with NSCLCs. The note with it: sunitinib added to cisplatin and pemetrexed; ref [20]; cited from earlier work.
Data set [3] is described as follows: Plasma pharmacokinetics of pemetrexed. It is filed as in vivo, human.
The mark [4] stands for this setting: C2 D1, following cisplatin and pemetrexed.
The mark [5] stands for this setting: Cycle 1, Day 1 vs Cycle 2, Day 1.

For `NC(=O)c1cc(Oc2ccc(NC(=O)Nc3ccc(Cl)c(C(F)(F)F)c3)c(F)c2)cc[n+]1[O-]` [M-5], the “tmax,md” value in data set [1] (C1 D21, regorafenib alone) is on record as 16.0 (4–24 ^a) hours. Besides, in data set [1] (setting [4]), the “tmax,md” value is on record as 5.0(0–6.25 ^a) hours. The “Mean AUC(0–24)md and Cmax,md on both days (in words)” value in data set [1] (C2 D1 vs C1 D21) is “comparable”. Moreover, in data set [1], the “AUC(0–24)md Ratio (90% CI)” value was 0.84 (0.67–1.06); the “Cmax,md Ratio (90% CI)” value is on record as 0.97 (0.78–1.20); the “coefficient of variation (CV) in AUC and Cmax” value was greater than 150%.
`CNC(=O)c1cc(Oc2ccc(NC(=O)Nc3ccc(Cl)c(C(F)(F)F)c3)c(F)c2)ccn1` [Regorafenib, reference compound]: in data set [2] (4 of 18 evaluable patients), the “patients with stable disease for ≥12 weeks” value was 22%. Also, the “Grade 4 or 5 toxicities” value in data set [2] (23 patients) is “no Grade 4 or 5 toxicities were observed”. In data set [2] (one patient), the “progression-free survival of one patient” value is roughly 40 weeks. Besides, the “tumor reduction in one patient” value in data set [2] (two non-consecutive measurements) is recorded as greater than 30%. Also, in data set [1] (C2 D1 vs C1 D21), the “Mean AUC(0–24)md and Cmax,md on both days (in words)” value is listed as “comparable”. Moreover, in data set [1], the “AUC(0–24)md Ratio (90% CI)” value is recorded as 0.93 (0.77–1.12), the “Cmax,md Ratio (90% CI)” value is 1.03 (0.70–1.51) and the Tmax is 4 h. Besides, the Tmax in data set [1] (60 mg/day) came out at 4 h. Besides, the “potency in human xenograft models relative to sorafenib” value in the data set on human xenograft models was ~ 3 times.
Consider `CCN(CC)CCNC(=O)c1c(C)[nH]c(/C=C2\C(=O)Nc3ccc(F)cc32)c1C` [sunitinib], for which the myelosuppression result with patients with NSCLCs is on record as “substantial myelosuppression”.
`Nc1nc2[nH]cc(CCc3ccc(C(=O)N[C@@H](CCC(=O)O)C(=O)O)cc3)c2c(=O)[nH]1` [Pemetrexed]: in data set [3] (setting [5]), the “mean AUC on both days (in words)” value was “comparable” and the “mean pemetrexed concentration, before vs after regorafenib (in words)” value is reported as “no difference”. Besides, in data set [3] (Cycle 2, Day 1 vs Cycle 1, Day 1), the “Cmax after regorafenib (in words)” value is recorded as “slightly increased”. For the same compound, in data set [3] (Ratio = C2D1:C1D1, n = 8), the “AUC(0–infinity) Ratio (90% CI)” value is recorded as 1.05 (0.96–1.16) and the “Cmax Ratio (90% CI)” value was 1.20 (1.05–1.35).
With `CNC(=O)c1cc(Oc2ccc(NC(=O)Nc3ccc(Cl)c(C(F)(F)F)c3)c(F)c2)cc[n+]1[O-]` [M-2], in data set [1] (C1 D21, regorafenib alone), the “tmax,md” value is given as 4.0 (2–24 ^a) hours. Besides, the “tmax,md” value in data set [1] (setting [4]) is reported as 5.0 (0–6.25 ^a) hours. Besides, in data set [1] (C2 D1 vs C1 D21), the “mean AUC(0–24)md lower following the pemetrexed and cisplatin treatment” value was 48%; the “mean Cmax,md lower following the pemetrexed and cisplatin treatment” value came out at 38%. Besides, in data set [1], the “AUC(0–24)md Ratio (90% CI)” value is reported as 0.52 (0.44–0.61); the “Cmax,md Ratio (90% CI)” value is given as 0.62 (0.46–0.83); the “coefficient of variation (CV) in AUC and Cmax” value is reported as greater than 75%.
